Measurements published in patent publication US7585839B2, “Medical uses of intercellular communication facilitating compounds” (Zealand Pharma A/S, priority 2001, dated 2009).

What was measured:
[1] = test system: alkaline phosphatase (ALP) activity of human osteoblasts; assay: Alkaline phosphatase assay, human osteoblasts; assay type: cell-based
Description: Day 1: Cells were plated in 96-well plates at a conc. of 8000 cells/well (hOB) or 3000 cells/well (ROS) in 200 μl normal culture medium.
Day 2: Medium was changed on the cells.
Day 4: (Day 3 for ROS): Cells were washed with 200 μl MEM, 0.1% BSA (Sigma, Cat.No. A-9418).
Day 8: (Day 5 for ROS): Alkaline Phosphatase (ALP) assay is a colorimetric endpoint method for measuring enzyme activity, and was done using Alkaline Phosphatase Kit (Sigma, Cat.No. 104-LL): Cells were washed once with 200 μl PBS+Ca,Mg. 100μl Alkaline Buffer Solution was added to each well and plate was placed at 37° C. for 10 min. 100 μl Substrate Solution was added to each well and plate was incubated at 37° C. for 30 min. 100 μl 2.0 N NaOH was added to each well to stop the reaction. Absorbance was measured using a plate reader at 405 nm.

[2] = test system: phosphoinositol turnover in neonatal rat cardiomyocytes; details: conference abstract, cited from earlier work
human osteoblastic cells [3] = assay: Intercellular calcium waves after mechanical stimulation, human osteoblastic cells; assay type: cell-based
Description: (§1) Human osteblast cells (hOB): Cells were isolated from human bone marrow obtained by puncture of the posterior iliac spine of healthy volunteers (aged 20-36): 10-15 ml marrow material was collected in 15 ml PBS+Ca,Mg (Life Technologies, Cat.No. 14040) with 100 U/ml Heparin (Sigma, Cat.No. H-3149). The mononuclear fraction of the marrow was isolated on a Lymphoprep gradient (Nycomed Pharma, Cat.No. 1001967), by centrifugation at 2200 rpm for 30 min. After harvesting, the mononuclear fraction was washed once with culture medium and centrifuged at 1800 rpm for 10 min. Subsequently cells were counted and plated in culture medium at 8×10^6 cells/100 mm dish. hOB medium (all reagents obtained from Life Technologies): MEM w/o Phenol Red w/Glutamax (Cat.No. 041-93013) supplemented with 10% heat inactivated fetal calf serum (Cat.No. 10106) and 0.1% Penicillin/Streptomycin (Cat.No. 15140). Medium was changed the following day and the cells were cultured at 37° C. in 5% CO2 with medium change every 7 days. After 3-4 weeks of culture the cells had reached 70% confluence. The medium was then supplemented with 100 nM Dexamethasone (Sigma, Cat.No. D-4902) for 7 days. Cells were then plated for video imaging experiments: a 25 mm #1 glass coverslip was placed in a 35 mm dish (or each well of a 6-well multidish), cells were plated at 2.5×10^5 cells/coverslip and cultured for 2-3 days before use. […]

ROS 17/2.8 cells = assay: Intercellular calcium waves after mechanical stimulation, ROS 17/2.8 cells; assay type: cell-based, rat; details: 48 hours hypoxia 3-6% O2; 10^−8 M, 10 minutes; 2.2 cells before
Description: ROS 17/2.8 cells: Cells were cultured in 100 mm dishes at 37° C. with 5% CO2 and medium change every 2-3 days. ROS medium (all reagents obtained from Life Technologies): MEM (Cat.No. 31095) supplemented with 10% heat-inactivated calf serum (Cat.No. 16170), 1% NEAA (Cat.No. 11140), 1% Sodium Pyruvate (Cat.No. 11360), 1% L-Glutamine (Cat.No. 25030) and 0.1% Penicillin/Streptomycin (Cat,No. 15140). For video imaging experiments, cells were plated on coverslips at 2-3×10^5 cells/coverslip and cultured for 2-3 days before use.
The cells cultured on coverslips were loaded with 5 μM fura-2-AM (Molecular Probes, Cat.No. F-1221), for 30 minutes at 37° C., and incubated in fresh medium for 20 minutes. Coverslips were then affixed to a PDMI-2 culture chamber (Medical Systems Corp.), maintained at 37° C. with superfused CO2, on a Zeiss Axiovert microscope. Intercellular calcium waves were induced by mechanical stimulation of a single cell using a borosilicate glass micro pipette affixed to an Eppendorf 5171 micromanipulator. Imaging was performed using a MetaMorph imaging system (Universal Imaging). The excitation light (340 and 380 nm) was provided by a monochromator (T.I.L.L. Photonics GmbH). Images were acquired with an intensified CCD camera (Dage MTI) and digitized with a Matrox MVP image processing board.

human osteoblastic cells [4] = assay: DDT-induced uncoupling in human osteoblast cells, Lucifer Yellow microinjection; assay type: cell-based; details: after DDT 13 μM 60 minutes; 10^−8 mol/l, 10 minutes; p<0.01
Description: as §1, with “osteoblast cells:” for “osteblast cells (hOB):”, “PBS+Ca, Mg” for “PBS+Ca,Mg”, “5%CO2” for “5% CO2”

Substance: Ac-D-Tyr-D-Pro-D-4Hyp-Gly-D-Ala-Gly-NH2 [Compound 2]
- stimulation of ALP activity during hypoxia, greater than during normoxia ([1]; 5% O2 four days, 10^−11 to 10^−8 mol/l): about 15%
- ALP activity ([1]; normal culture conditions, 1×10^−13 to 1×10^−6): increased ALP activity at most of the concentrations tested
- noradrenalin-induced level of PI turnover ([2]; normal athmospheric and nutritional conditions): do not alter
- noradrenalin-induced PI turnover, % of the normal level ([2]; oxygen and glucose deprivation): ~90%
- average number of cells in the calcium wave (human osteoblastic cells [3]; after ATP desensitization, 10^−8 mol/l, 10 minutes, 4.5 cells before): 6.2 cells
- average number of cells in the calcium wave (human osteoblastic cells [3]; medium without glucose, 10^−8 M, 1.4 cells before): 2.9 cells
- average number of cells in the calcium wave (ROS 17/2.8 cells): 5.4 cells
- cell-to-cell dye transfer, median number of cells (human osteoblastic cells [4]): 8.3 cells
